Measured values taken from PMC4586642, “CYP450 Enzyme-Mediated Metabolism of TCAS and Its Inhibitory and Induced Effects on Metabolized Enzymes in Vitro” (International Journal of Environmental Research and Public …, 2015).

Key:
CYP1A = test: Induction of CYP1A activity in sandwich-cultured rat hepatocytes (phenacetin probe); conditions: 2.5 µM, 72 h
Experimental: (§1) Rat primary hepatocytes were prepared according to a modified, two-step collagenase perfusion method. Viability of hepatocyte was determined by Trypan Blue exclusion. Only those hepatocyte preparations with viability greater than 90% were used for further studies. Hepatocyte suspensions were prepared with DMEM-F12 containing 10% FBS, 100 U/mL penicillin, 100 µg/mL streptomycin, 1 µM DEX and 4 µg/mL insulin. Then, hepatocyte suspensions were seeded into the pre-coated wells at a density of 1 × 10^6 cells/well in 24-well plates. […] Medium was changed daily. On day 4, the cultured hepatocytes were washed twice with Hank’s balanced salt solution containing 25 mM HEPES and incubated with 0.5 mL of the same buffer containing 50 μM phenacetin and 5 μM midazolam at 37 °C for 1h. At the end of incubation, 0.5 mL aliquots of the media were transferred to 1.5-mL test tubes and stored at −20 °C until analysis. All incubations were conducted in triplicate.
(§2) Results were analyzed by a two-factor ANOVA. A p < 0.05 was considered statistically significant. […] Microsoft Excel (Microsoft, Redmond, WA, USA) was used to calculate IC50 estimates by linear transformation of the raw data. The data were corrected for both background and control activities.

CYP3A = test: Induction of CYP3A activity in sandwich-cultured rat hepatocytes (midazolam probe); conditions: 1 mM, 72 h
Experimental: as §1, §2

CYP2D6 (2D6) = test system: T1, CYP2D6 (2D6); test: Inhibition of isoform-selective probe metabolism (phenacetin 1A2, tolbutamide 2C9, bupropion 2B6, dextromethorphan 2D6, midazolam 3A) in rat liver microsomes (0.4 mg/mL) with an NADPH-generating system, 0.5-500 uM TCAS, 30 min at 37 °C, LC-MS/MS readout.; type: biochemical; conditions: SD, n = 3
T1 construct: native enzyme in rat liver microsomes (RLMs)
Experimental: (§3) The inhibitory effects of TCAS on the activities of CYP1A2, CYP2C9, CYP2D6, CYP2B6 and CYP3A were tested in RLMs and HLMs using probes selective for each isoform. The reaction probes used were as follows: phenacetin for CYP1A2; tolbutamide for CYP2C9; dextromethorphan for CYP2D6; midazolam for CYP3A and bupropion for CYP2B6. Incubation conditions specific to each isoform were linear with time, substrate, and protein concentrations as detailed in our previous studies. Isoform-specific substrate probes were incubated in duplicate at 37 °C with RLMs and HLMs and an NADPH-generating system in the absence (control) or presence of various concentrations (0.5, 1.5, 5, 15, 50, 100, and 500 µM) of TCAS. A 5-min pre-incubation was carried out before the reaction was initiated by adding 0.4 mg/mL of RLMs and HLMs. After incubation for 30 min, the reaction was terminated with 400 μL of ice-cold stop solution.
(§4) Results were analyzed by a two-factor ANOVA. A p < 0.05 was considered statistically significant.

CYP2C9 (2C9) = test system: T2, CYP2C9 (2C9); test: as above; type: biochemical; conditions: SD, n = 3
T2 construct: native enzyme in rat liver microsomes (RLMs)
Experimental: as §3, §4

CYP3A4 (3A4) = test system: T3, CYP3A4 (3A4); test: as above; type: biochemical; conditions: SD, n = 3
T3 construct: native enzyme in rat liver microsomes (RLMs)
Experimental: as §3, §4

CYP2B6 (2B6) = test system: T4, CYP2B6 (2B6); test: as above; type: biochemical; conditions: SD, n = 3
T4 construct: native enzyme in rat liver microsomes (RLMs)
Experimental: as §3, §4

CYP2C9 = CYP2C9 (Homo sapiens, UniProt P11712); test: in vitro; conditions: microsomes, pH 7.4
Chain of CYP2C9 (P11712 whole entry): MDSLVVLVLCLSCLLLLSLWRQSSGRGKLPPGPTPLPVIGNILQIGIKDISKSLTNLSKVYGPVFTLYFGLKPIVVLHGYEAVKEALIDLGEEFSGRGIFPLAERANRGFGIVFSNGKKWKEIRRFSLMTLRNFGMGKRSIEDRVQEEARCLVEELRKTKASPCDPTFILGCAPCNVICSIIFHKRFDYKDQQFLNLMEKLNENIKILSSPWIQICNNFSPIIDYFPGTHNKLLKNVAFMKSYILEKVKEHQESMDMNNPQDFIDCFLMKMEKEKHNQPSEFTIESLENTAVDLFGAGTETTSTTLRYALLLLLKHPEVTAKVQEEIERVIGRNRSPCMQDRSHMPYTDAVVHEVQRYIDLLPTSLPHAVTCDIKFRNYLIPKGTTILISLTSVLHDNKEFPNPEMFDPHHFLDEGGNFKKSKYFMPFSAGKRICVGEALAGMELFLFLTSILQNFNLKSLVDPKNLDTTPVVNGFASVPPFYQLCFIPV
Experimental: (§5) Inhibitor stock solutions prepared in appropriate solvents accounted for 0.4% organic solvent in the final incubation for 30 min at 37 °C with gentle shaking before stopping with 400 μL ice-cold stop solution (1:1 (v:v) mixture of acetonitrile and methanol) containing 50 ng/mL tolbutamide (IS). After vortexing for 30 seconds, and centrifugation at 16,000 g for 10 min, the supernatant was collected and analyzed by LC-MS/MS as described above. […] All incubations were conducted in triplicate.

CYP1A2 = CYP1A2 (Homo sapiens, UniProt P05177); test: TCAS incubation with human liver microsomes plus CYP1A2-selective inhibitor; conditions: pH 7.4, probe TCAS (100 µM)
Chain of CYP1A2 (P05177 whole entry): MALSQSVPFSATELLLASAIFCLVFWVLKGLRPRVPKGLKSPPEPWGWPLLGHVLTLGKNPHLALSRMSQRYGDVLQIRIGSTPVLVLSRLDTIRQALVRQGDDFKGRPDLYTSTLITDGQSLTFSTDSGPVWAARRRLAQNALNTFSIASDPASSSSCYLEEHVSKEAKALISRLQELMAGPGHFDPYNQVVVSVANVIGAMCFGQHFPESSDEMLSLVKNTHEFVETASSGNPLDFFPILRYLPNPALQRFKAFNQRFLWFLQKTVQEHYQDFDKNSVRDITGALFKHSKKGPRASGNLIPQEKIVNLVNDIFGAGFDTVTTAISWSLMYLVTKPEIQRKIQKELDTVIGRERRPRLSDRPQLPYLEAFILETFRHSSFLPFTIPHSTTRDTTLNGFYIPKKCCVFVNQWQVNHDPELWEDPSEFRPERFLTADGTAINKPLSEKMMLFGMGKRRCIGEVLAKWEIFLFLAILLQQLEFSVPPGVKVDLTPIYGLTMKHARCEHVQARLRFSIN
Experimental: as §5

Q: For Cc1ccc2cc3c(ccc4ccccc43)c3c2c1CC3 [3-MC, 3-methylcholanthrene], which “mean induction of CYP1A activity compared with control cells” value (CYP1A) is on record?
A: The value was 23.8 fold.

Q: For CCC1(c2ccccc2)C(=O)NC(=O)NC1=O [PB, phenobarbital], which “mean induction of CYP3A activity compared with control cells” value (CYP3A) is on record?
A: The value was 5.1 fold.

Q: O=S(=O)(O)c1cc2c(O)c(c1)Sc1cc(S(=O)(=O)O)cc(c1O)Sc1cc(S(=O)(=O)O)cc(c1O)Sc1cc(S(=O)(=O)O)cc(c1O)S2 [TCAS, Thiacalix[4]arene tetrasulfonate] was tested. Which IC50 (CYP2D6 (2D6)) did it give?
A: Its IC50 is 196 ± 17.6 µM.

Q: What about the IC50 (CYP2C9 (2C9)) of the same compound?
A: The IC50 was 383 ± 23.5 µM.

Q: What about the IC50 (CYP3A4 (3A4)) of the same compound?
A: Its IC50 is 2420 ± 235 µM.

Q: And the IC50 (CYP2B6 (2B6))?
A: The IC50 was 1700 ± 103 µM.

Q: For Nc1ccc(S(=O)(=O)Nc2ccnn2-c2ccccc2)cc1 [sulfaphenazole], which inhibition at 30 min, 60 µM (CYP2C9) is on record?
A: Its inhibition at 30 min, 60 µM is 51.7%.

Q: For O=c1cc(-c2ccccc2)oc2c1ccc1ccccc12 [α-Naphthoflavone], which inhibition at 30 min, 6 µM (CYP1A2) is on record?
A: The inhibition at 30 min, 6 µM was 54.9%.
